The text below walks through data of patent US6800481B1, “Stable macroscopic membranes formed by self-assembly of amphiphilic peptides and uses therefor” (priority 1992, dated 2004).

Values joined by “and” are separate entries in the source; they are usually repeats but may differ in a detail not shown here. Identical values can stand only once. Residues, ends and D or L forms follow the SMILES beside them.

Data set [1] can be described thus: Testing of peptides for macroscopic membrane formation (phase-contrast microscope, Congo Red staining). It is filed as physicochemical. The text has this: The effect of length and sequence on membrane formation was examined using several peptides (Table 1 and Example 3). […] Very long peptides, e.g., of about 200 amino acids, may encounter problems due to insolubility and intramolecular interactions which destabilize membrane formation. […] The optimal lengths for membrane formation will probably vary with the amino acid composition.
The EAK12 and EAK16 tested for membrane formation were acetylated and aminylated at both N- and C-terminal ends. […] The peptides were initially dissolved in water (5 mg/ml) or in 23% acetonitrile (10 mg/ml). A volume of 5-10 microliters of the dissolved peptides were applied to the DMEM medium, PBS or water. The formation of the membrane was first observed under a phase-contrast microscope and then, by the naked eye after staining with Congo Red.

Data set [2] has as its system PC12. Nature of the data set: Cell attachment to biopolymer sheets, normal or Ca++ and Mg++ free medium (Table 6). Also noted: key: ++++: strong attachment; +++: moderate attachment; ++: weak attachment; +/−: little or no attachment. In kind it is cell-based, rat. The protocol: (§1) Cells were pretreated in serum-free medium containing 30 μg/ml cyclohexamide for 2 hours before introduction to the peptide membranes. The cells used for the calcium and magnesium-free condition were pre-equilibrated in Ca^++ and Mg^++ free medium containing 5 mM EDTA for 15 minutes before introduction to the peptide membranes. Cells were allowed to attach to the peptide membranes for 30 minutes, 1 and 8 hours at 37° C. The attached cells were shaken for […] on a rotary rocker at 60 r.p.m., then scored under phase contrast microscopy.

Data set [3] deals with 3T3. The data set is described as above. It is filed as cell-based, mouse. Also noted: key: ++++: strong attachment; +++: moderate attachment; ++: weak attachment; +/−: little or no attachment. The protocol: as §1
The nature of data set [4]: Ions tested for effectiveness at inducing membrane formation; conditions of membrane formation. In kind it is physicochemical. The protocol: Various metal cations were tested for effectiveness at inducing membrane formation from EAK16. […] The order of effectiveness of the monovalent cations appears to be Li^+>Na^+>K^+>Cs^+. Cs^+ produces the least amount of membranes and in addition, yields nonmembranous precipitates. The effectiveness of the monovalent cations appears to correlate inversely with the crystal radii of the ions: Li^+ (0.6 Å), Na^+ (0.95 Å), K^+ (1.33 Å), and Cs^+ (1.69 Å) (Pauling, 1960). A correlation is also seen with the hydrated radii of the ions: Li^+ (3.4 Å), Na^+ (2.76 Å), K^+ (2.32 Å), and Cs^+ (2.28 Å), and with the order of enthalpies of the monovalent cations (Pauling, 1960). It is not known at present if the monovalent metal cations act as a catalyst or if they are incorporated into the membrane. […] Thus, membrane formation appears to be independent of salt concentration over this wide range. Salt concentrations of less than 5 mM may also induce membrane formation, but at a slower rate. The initial concentration of the peptide is a significant factor in the size and thickness of the membrane formed. In general, the higher the peptide concentration, the higher the extent of membrane formation. Membranes can form from initial peptide concentrations as low as 0.5 mM or 1 mg/ml. However, membranes formed at higher initial peptide concentrations (about 10 mg/ml) are thicker and thus, likely to be stronger. Therefore, it is preferable when producing the membranes to add peptide to a salt solution, rather than to add salt to a peptide solution. Formation of the membranes is very fast, on the order of a few minutes, and seems to be irreversible (see below). The process is unaffected by pH≦12 (the peptides tend to precipitate out at pH above 12), and by temperature. The membranes can form at temperatures in the range of 4 to 90° C. Formation of the membranes is inhibited by the presence of divalent metal cations at concentrations equal to or greater than 100 μM, which promote unstructured aggregation rather than membrane formation, and by sodium dodecyl sulfate (SDS) at a concentration of at least 0.1%.

The format of data set [5] is physicochemical. As to the method:
Once formed, the macroscopic membranes are stable in a variety of aqueous solutions, including water, phosphate-buffered saline (PBS), tissue culture medium, serum, and also in ethanol, and can be transferred to and stored in any of these liquids. […] The membranes can be transferred from one solution to another using a solid support such as a spatula. They can be broken by cutting, tearing or shearing.
The stability of the membranes was also tested under a range of temperature, pH and chemical conditions. For these experiments, membranes were formed by adding 20 μl of a 0.5 mM stock solution of EAK16 to 0.5 ml of PBS, and transferred into water or other solutions at test conditions.
The membranes could be frozen and thawed, although care was required in handling the frozen membranes which were brittle. In boiling water, the membranes tended to be sheared by the mechanical agitation. […] (FIGS. 9A and 9B). […] Such strong thermal stability of the defined β-sheet structure of EAK16 is unusual for a small peptide. For example, these findings contrast with the α-helix-forming sixteen residue (Ala, Glu, Lys)-containing peptides studied previously (Marqusee and Baldwin, 1987).
The EAK16 membranes were also tested in water at pH 1.5, 3, 7 and 11 at room temperature for at least a week and at 95° C. for about 4 hours. The membranes were unaffected at these pH. […] It is possible that the complementary interactions between the Glu and Lys side-chains are strong even when the carboxyl groups of the Glu residues have been protonated at pH 1.5 and 3, due to their ability to form hydrogen bonds even when protonated.
The EAK16 membranes were further tested for resistance to chemical denaturation under the following conditions: 1% and 10% sodium dodecyl sulfate (SDS); 1, 2, 3, 4, 5, 6 and 7 M guanidine-HCl; and 1, 2, 3, 4, 5, 6, 7 and 8 M urea. […] The membranes were also tested at 95° C. for 4 hours in 10% SDS; 7 M guanidine-HCl; and at 8 M urea.

The nature of data set [6]: physchem. In kind it is physicochemical. As to the method:
EAK16 peptide stock solutions were prepared at a concentration of approximately 0.57 mM (1 mg/ml) in water. The molecular weight of EAK16 is 1,760. […] The concentration was determined by the ninhydrin methods using internal controls.

Regarding `CC(=O)N[C@@H](C)C(=O)N[C@@H](CCC(=O)O)C(=O)N[C@@H](C)C(=O)N[C@@H](CCC(=O)O)C(=O)N[C@@H](C)C(=O)N[C@@H](CCCCN)C(=O)N[C@@H](C)C(=O)N[C@@H](CCCCN)C(=O)N[C@@H](C)C(=O)N[C@@H](CCC(=O)O)C(=O)N[C@@H](C)C(=O)N[C@@H](CCC(=O)O)C(=O)N[C@@H](C)C(=O)N[C@@H](CCCCN)C(=O)N[C@@H](C)C(=O)N[C@@H](CCCCN)C(N)=O` [EAK16] (Ac-AEAEAKAKAEAEAKAK-NH2), in data set [1] (identical conditions, in words), the “formation of macroscopic membranes” value is listed as “could undergo self-assembly”. In addition, in data set [1] (water), the “membranous structure in Water” value is given as “−”. Besides, the cell attachment result is “++++” in data set [2] (PC12, 30 min, Ca^++ & Mg^++ free, EDTA serum-free + Cyclohex); “++++” in data set [2] (PC12, 30 min, Normal Ca^++ & Mg^++ serum-free + Cyclohex); “++++” in data set [2] (PC12, 60 min, Ca^++ & Mg^++ free, EDTA serum-free + Cyclohex); “++++” in data set [2] (PC12, 60 min, Normal Ca^++ & Mg^++ serum-free + Cyclohex); “++++” in data set [3] (3T3, 30 min, Ca^++ & Mg^++ free, EDTA serum-free + Cyclohex); “++++” in data set [3] (3T3, 30 min, Normal Ca^++ & Mg^++ serum-free + Cyclohex). For the same compound, the cell attachment entry was “++++” in data set [3] (3T3, 60 min, Ca^++ & Mg^++ free, EDTA serum-free + Cyclohex) and “++++” in data set [3] (3T3, 60 min, Normal Ca^++ & Mg^++ serum-free + Cyclohex). In addition, in data set [4], the “effect of divalent cations on membrane formation” value was “divalent cations primarily induce unstructured aggregates”. Also, the “effect of monovalent metal cations on membrane formation” value in data set [4] is “monovalent metal cations induce membrane formation”. In data set [4], the “order of effectiveness of the monovalent cations” value is given as “Li^+>Na^+>K^+>Cs^+”. For the same compound, in data set [4] (acetate, Cl^−, SO4^−2, PO4^−2, NH4^+ and Tris-Cl), the “effect of anions and organic ions on membrane formation” value is recorded as “not found to induce membrane formation”. In data set [5], the “stability of membranes and filaments in liquids” value was “stable in aqueous solution, in serum, and in ethanol”. Also, in data set [5], the “stability of membranes in water or PBS” value is reported as “stable in water or PBS for at least a week”. For the same compound, the “stability of membranes in water over temperature” value in data set [5] was “stable in water over a wide range of temperatures: up to 95° and at 4°, −20°, and −80 °C”. Besides, in data set [5] (1% and 10% SDS, 1-7 M guanidine-HCl, 1-8 M urea, room temperature at least 4 days), the “resistance of membranes to chemical denaturation at room temperature” value is recorded as “remained stable”. Besides, in data set [5] (95° C. for 4 hours, 8 M urea), the “membranes in 8 M urea at 95° C.” value was “dissolved”. For the same compound, the “membranes in SDS and 7 M guanidine-HCl at 95° C.” value in data set [5] (95° C. for 4 hours, 10% SDS, 7 M guanidine-HCl) is listed as “remained intact”. Moreover, the “pH at which membranes and filaments are stable” value in data set [5] (alkaline and acidic pH) is on record as 1.5-11. The solubility was 3000 µM and ~5000 µg/mL in data set [6] (maximal solubility in water); ≤ 6000 µM and ~10000 µg/mL in data set [6] (solubility in 23% actonitrile).
